Laboratory results: patent publication US11834434B2, “Substituted 2-heteroaryloxypyridines and salts thereof and their use as herbicidal agents” (Bayer Aktiengesellschaft, priority 2018, dated 2023)

Columns and labels:
Format in all cases: in vivo
[1] = system: Matricaria inodora (MATIN); experiment: Pre-emergence herbicidal action against Matricaria inodora; details: 1280 g/ha; scored visually after about 3 weeks vs untreated controls; 100% = plants have died, 0% = like control plants
From the text: (§1) Seeds of mono- and dicotyledonous weed plants were placed in plastic pots in sandy loam soil (doubly sown with in each case one species of mono- or dicotyledonous weed plants per pot) and covered with soil. The compounds of the invention, formulated in the form of wettable powders (WP) or as emulsion concentrates (EC), were then applied onto the surface of the covering soil as aqueous suspension or emulsion with addition of 0.5% additive at a water application rate of 600 liters per hectare (converted). After the treatment, the pots were placed in a greenhouse and kept under good growth conditions for the test plants. After about 3 weeks, the effect of the preparations was scored visually in comparison with untreated controls as percentages. For example, 100% activity=the plants have died, 0% activity=like control plants. Tables C1 to C8 below show the effects of selected compounds of the general formula (I) according to Table 1 on various harmful plants and an application rate corresponding to 1280 g/ha, which were obtained by the experimental procedure mentioned above.

[2] = system: Amaranthus retroflexus (AMARE); experiment: Pre-emergence herbicidal action against Amaranthus retroflexus; details: 1280 g/ha; scored visually after about 3 weeks vs untreated controls; 100% = plants have died, 0% = like control plants
From the text: as §1

Setaria viridis (SETVI) = experiment: Pre-emergence herbicidal action against Setaria viridis; details: 1280 g/ha; scored visually after about 3 weeks vs untreated controls; 100% = plants have died, 0% = like control plants
From the text: as §1

Poa annua (POAAN) [3] = experiment: Pre-emergence herbicidal action against Poa annua; details: 1280 g/ha; scored visually after about 3 weeks vs untreated controls; 100% = plants have died, 0% = like control plants
From the text: as §1

Stellaria media (STEME) [4] = experiment: Pre-emergence herbicidal action against Stellaria media; details: 1280 g/ha; scored visually after about 3 weeks vs untreated controls; 100% = plants have died, 0% = like control plants
From the text: as §1

Stellaria media (STEME) [5] = experiment: Post-emergence herbicidal action against Stellaria media; details: 1280 g/ha; rated visually after about 3 weeks vs untreated controls; 100% = plants have died, 0% = like control plants
Protocol: (§2) Seeds of mono- and dicotyledonous weed plants were placed in plastic pots in sandy loam soil (doubly sown with in each case one species of mono- or dicotyledonous weed plants per pot), covered with soil and cultivated in a greenhouse under controlled growth conditions. 2 to 3 weeks after sowing, the test plants were treated at the one-leaf stage. The compounds of the invention, formulated in the form of wettable powders (WP) or as emulsion concentrates (EC), were applied onto the green parts of the plants as aqueous suspension or emulsion with addition of 0.5% additive at a water application rate of 600 liters per hectare (converted). After the test plants had been kept in the greenhouse under optimum growth conditions for about 3 weeks, the activity of the preparations was rated visually in comparison to untreated controls. For example, 100% activity=the plants have died, 0% activity=like control plants. Tables B1 to B8 below show the effects of selected compounds of the general formula (I) according to Table 1 on various harmful plants and an application rate corresponding to 1280 g/ha, which were obtained by the experimental procedure mentioned above.

[6] = system: Abutilon theophrasti (ABUTH); experiment: Pre-emergence herbicidal action against Abutilon theophrasti; details: 1280 g/ha; scored visually after about 3 weeks vs untreated controls; 100% = plants have died, 0% = like control plants
From the text: as §1

[7] = system: Amaranthus retroflexus (AMARE); experiment: Post-emergence herbicidal action against Amaranthus retroflexus; details: 1280 g/ha; rated visually after about 3 weeks vs untreated controls; 100% = plants have died, 0% = like control plants
Protocol: as §2

[8] = system: Echinochloa crus-galli (ECHCG); experiment: Pre-emergence herbicidal action against Echinochloa crus-galli; details: 1280 g/ha; scored visually after about 3 weeks vs untreated controls; 100% = plants have died, 0% = like control plants
From the text: as §1

Poa annua (POAAN) [9] = experiment: Post-emergence herbicidal action against Poa annua; details: 1280 g/ha; rated visually after about 3 weeks vs untreated controls; 100% = plants have died, 0% = like control plants
Protocol: as §2

Lolium rigidum (LOLRI) = experiment: Pre-emergence herbicidal action against Lolium rigidum; details: 1280 g/ha; scored visually after about 3 weeks vs untreated controls; 100% = plants have died, 0% = like control plants
From the text: as §1

[10] = system: Abutilon theophrasti (ABUTH); experiment: Post-emergence herbicidal action against Abutilon theophrasti; details: 1280 g/ha; rated visually after about 3 weeks vs untreated controls; 100% = plants have died, 0% = like control plants
Protocol: as §2

Compound	Pre-emergence action against Matricaria inodora (MATIN) [1]	Pre-emergence action against Amaranthus retroflexus (AMARE) [2]	Pre-emergence action against Setaria viridis (SETVI) (Setaria viridis (SETVI))	Pre-emergence action against Poa annua (POAAN) (Poa annua (POAAN) [3])	Pre-emergence action against Stellaria media (STEME) (Stellaria media (STEME) [4])	Post-emergence action against Stellaria media (STEME) (Stellaria media (STEME) [5])	Pre-emergence action against Abutilon theophrasti (ABUTH) [6]	Post-emergence action against Amaranthus retroflexus (AMARE) [7]	Pre-emergence action against Echinochloa crus-galli (ECHCG) [8]	Post-emergence action against Poa annua (POAAN) (Poa annua (POAAN) [9])	Pre-emergence action against Lolium rigidum (LOLRI) (Lolium rigidum (LOLRI))	Post-emergence action against Abutilon theophrasti (ABUTH) [10]
Cc1ccc(Cc2ccc(F)cc2F)c(Oc2ncc(Cl)cn2)n1 [Example I-400]	90%	90%	100%	100%	100%							
Cc1ccc(Cc2ccc(C)nc2Oc2ncc(F)cn2)cc1 [Example I-438]	100%				100%	90%	90%	90%				
Cc1ccc(Cc2ccccc2)c(Oc2ncc(F)cn2)n1 [Example I-430]	100%	100%	100%	100%	100%	100%	100%	90%	100%	90%	90%	
Cc1ccc(Cc2ccc(C)nc2Oc2ncc(Cl)cn2)cc1 [Example I-405]		100%	100%		100%							
Cc1ccc(Oc2ccccc2)c(Oc2ncccn2)n1 [Example I-522]	90%	90%	100%	100%	100%	100%	100%	100%	100%	90%	90%	
COc1cc(Oc2ccc(C)nc2Oc2ncc(F)cn2)ccc1F [Example I-520]	100%	100%	90%	100%	100%		90%	100%			100%	90%
Fc1ccc(Sc2cccnc2Oc2ncc(F)cn2)cc1 [Example I-154]	100%	100%	100%	100%	100%			100%				
Cc1ccc(Oc2ccccc2)c(Oc2ncc(C(F)(F)F)cn2)n1 [Example I-533, 2-[(6-Methyl-3-phenoxy-2-pyridyl)oxy]-5-(trifluoromethyl)pyrimidine]			90%	90%	100%				90%	100%		
COc1cc(Cc2ccc(C)nc2Oc2ncc(F)cn2)ccc1F [Example I-439]		90%	100%	100%	100%	90%	100%		100%			
COc1cc(Oc2ccc(C)nc2Oc2ncc(Cl)cn2)ccc1F [Example I-509]	100%	100%	90%	100%	100%		100%	100%			90%	
Cc1ccc(Cc2ccc(C)nc2Oc2ncccn2)cc1 [Example I-449]				90%	100%							
COc1cc(Cc2ccc(C)nc2Oc2ncc(C(F)(F)F)cn2)ccc1F [Example I-465]		100%	90%	100%	90%			90%			90%	
COc1cc(Cc2ccc(C)nc2Oc2ncccn2)ccc1F [Example I-450]	100%	90%	100%	100%	100%		100%	90%	90%		90%	
Cc1ccc(Oc2ccc(Cl)cc2)c(Oc2ncc(C(F)(F)F)cn2)n1 [Example I-534]	90%	90%	90%		100%						100%	
COc1cc(Oc2ccc(C)nc2Oc2ncccn2)ccc1F [Example I-531]	100%	100%	100%	100%	100%		100%		90%			
COc1cc(Cc2ccc(C)nc2Oc2ncc(Cl)cn2)ccc1F [Example I-406]	100%	90%	100%	100%	100%	90%		90%		90%	90%	
Fc1cnc(Oc2ncccc2Sc2ccc(F)cc2F)nc1 [Example I-156]	90%	100%	90%	100%	100%	100%		100%				100%
Cc1ccc(Oc2ccc(Cl)cc2)c(Oc2ncccn2)n1 [Example I-526]	100%	100%	100%	100%	100%		100%		100%	100%		
Cc1ccc(Cc2ccccc2)c(Oc2ncccn2)n1 [Example I-441]	100%	100%	100%	100%	100%	100%	100%	100%	100%		90%	
